Results: US7338949B2, “Mycobacterial inhibitors” (Janssen Pharmaceutica N.V., priority 2004, dated 2008)

Key:
M. Smegmatis ATCC607 = experiment: In-vitro method for testing compounds for anti-bacterial activity against strain M. Smegmatis ATCC607; format: cell-based; conditions: M. smegmatis growth inhibition, 48 hours at 37° C., Alamar Blue fluorescence; for IC50: Mycolicibacterium smegmatis, ATCC607, 48 h
Protocol: D.2. In-vitro method for testing compounds for anti-bacterial activity against strain M. Smegmatis ATCC607.
Flat-bottom, sterile 96-well plastic microtiter plates were filled with 180 μl of sterile deionized water, supplemented with 0.25% BSA. Subsequently, stock solutions (7.8× final test concentration) of compounds were added in 45 μl volumes to a series of duplicate wells in column 2 so as to allow evaluation of their effects on bacterial growth. Serial five-fold dilutions (45 μl in 180 μl) were made directly in the microtiter plates from column 2 to 11 using a customised robot system (Zymark Corp., Hopkinton, Mass.). Pipette tips were changed after every 3 dilutions to minimize pipetting errors with high hydrophobic compounds. Untreated control samples with (column 1) and without (column 12) inoculum were included in each microtiter plate. Approximately 250 CFU per well of bacteria inoculum, in a volume of 100 μl in 2.8× Mueller-Hinton broth medium, was added to the rows A to H, except column 12. The same volume of broth medium without inoculum was added to column 12 in row A to H. The cultures were incubated at 37° C. for 48 hours in a humidified 5% CO2 atmosphere (incubator with open air valve and continuous ventilation). At the end of incubation, two days after inoculation, the bacterial growth was quantitated fluorometrically. Therefore Alamar Blue (10×) was added to all wells in a volume of 20 μl and plates were incubated for another 2 hours at […]
The fluorescence was read in a computer-controlled fluorometer (Cytofluor, Biosearch) at an excitation wavelength of 530 nm and an emission wavelength of 590 nm (gain 30). The % growth inhibition achieved by the compounds was calculated according to standard methods. The pIC50 was defined as the 50% inhibitory concentration for bacterial growth.

melting point | Structure (SMILES) | IC50 (M. Smegmatis ATCC607) | pIC50 (M. Smegmatis ATCC607)
– | COc1nc2ccc(-c3ccccc3)cc2cc1[C@@H](c1ccccc1)[C@]1(c2cccc3ccccc23)CCN(C)CO1 (single isomer, unassigned) [Compound 6] | 25.1 nM | –
– | COc1ccc2nc(OC)c([C@@H](c3ccccc3)[C@]3(c4cccc5ccccc45)CCN(C)CO3)cc2c1 (single isomer, unassigned) [Compound 8] | 63.1 nM | –
201 °C | COc1nc2ccc(Br)cc2cc1[C@@H](c1ccc(Cl)cc1)[C@]1(c2cccc3ccccc23)CCN(C)CO1 (single isomer, unassigned) [Compound 2] | 63.1 nM | –
216 °C | CCN1CC[C@@](c2ccc(F)cc2F)(C(c2ccccc2)c2cc3cc(Br)ccc3nc2OC)OC1=O (single isomer, unassigned) [Compound 19] | – | –
195 °C | COc1nc2ccc(Cl)cc2cc1[C@@H](c1ccccc1)[C@@]1(c2cccc3ccccc23)CC[N+](C)(C)CO1.[I-] (single isomer, unassigned) | – | –
211 °C | COc1nc2ccc(Cl)cc2cc1[C@@H](c1ccccc1)[C@]1(c2cccc3ccccc23)CC[N+](C)(C)CO1.[I-] (single isomer, unassigned) | – | –
– | COc1ccc2nc(OC)c([C@@H](c3ccccc3)[C@@]3(c4cccc5ccccc45)CCN(C)CO3)cc2c1 (single isomer, unassigned) [Compound 14] | 316 nM | –
– | COc1nc2ccc(Br)cc2cc1[C@@H](c1ccc(Cl)cc1)[C@@]1(c2cccc3ccccc23)CCN(C)CO1 (single isomer, unassigned) [Compound 17] | 316 nM | –
192 °C | CCN1CC[C@](c2ccc(F)cc2F)(C(c2ccccc2)c2cc3cc(Br)ccc3nc2OC)OC1=O (single isomer, unassigned) [Compound 5] | 20000 nM | –
108 °C | COc1nc2ccc(Br)cc2cc1[C@@H](c1ccccc1)[C@@]1(c2cccc3ccccc23)CCN(C)CO1 (single isomer, unassigned) [Compound 11] | 316 nM | –
168 °C | COc1nc2ccc(Br)cc2cc1[C@H](c1ccccc1)C1(c2ccccc2)CCN(C)CO1 (single isomer, unassigned) [Compound 12] | 158 nM | –
189 °C | COc1nc2ccc(Cl)cc2cc1[C@@H](c1ccccc1)[C@@]1(c2cccc3ccccc23)CCN(C)CO1 (single isomer, unassigned) [Compound 3] | – | 5.1
– | COc1nc2ccc(-c3ccco3)cc2cc1[C@@H](c1ccccc1)[C@@]1(c2cccc3ccccc23)CCN(C)CO1 (single isomer, unassigned) [Compound 16] | 316 nM | –
– | COc1nc2ccc(-c3ccccc3)cc2cc1[C@@H](c1ccccc1)[C@@]1(c2cccc3ccccc23)CCN(C)CO1 (single isomer, unassigned) [Compound 13] | 316 nM | –
112 °C | COc1nc2ccc(Br)cc2cc1[C@@H](c1ccccc1)[C@]1(c2cccc3ccccc23)CCN(C)CO1 (single isomer, unassigned) [Compound 1] | 3.16 nM | –
– | COc1nc2ccc(Cl)cc2cc1[C@@H](c1ccccc1)[C@@]1(c2cccc3ccccc23)CCN(C)CO1 (single isomer, unassigned) [Compound 7] | – | 7.9
